These results are taken from the METLIN SMRT retention time set (Domingo-Almenara et al. 2019).

This data set is described as follows: gradient 5% acetonitrile 3 min, to 50% in 2 min, to 85% in 15 min, held 3 min, 100 µL/min. Particulars: column: Zorbax Extend-C18 2.1 x 50 mm; eluents: water / acetonitrile, 0.1% formic acid. Summed up:
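Retention times come from adduct peaks that were picked computationally and then checked by hand. The standards, pure and pooled in mixtures of ~100 molecules, were run on a Zorbax Extend-C18 column (2.1 × 50 mm, 1.8 μm) at 100 μL/min with water and acetonitrile, each with 0.1% formic acid. Detection was by quadrupole time-of-flight mass spectrometry in positive and negative ionization mode, with a dead volume of 40 μL and a dwell volume of 900 μL.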
In turn, `Cc1cccc2c(C(=O)O)cc(N3CCN(C)CC3)nc12` showed an RP-LC retention time of 596 s.

For the molecule `COc1ccc(NC(=O)N2CCC(n3c(-c4ccco4)nc4cccnc43)C2)cc1F` (centres undefined), the RP-LC retention time was 690 s.

The molecule `COCCNC(=O)N1c2ccccc2CC1c1nc(C(C)C)no1` (centres undefined) showed an RP-LC retention time of 836 s.

The molecule `CN(C)c1cc(-n2cnc(C(=O)NCc3cccc(Cl)c3)c2)ncn1` displayed an RP-LC retention time of 793 s.

For the molecule `O=C(NCc1cc(F)cc(F)c1)c1sc2ncccc2c1-n1cccc1`, the RP-LC retention time came out at 1030 s.

With `CCCCOc1cccc(C(=O)N(Cc2ccc(Br)o2)C2CCS(=O)(=O)C2)c1` (centres undefined), the RP-LC retention time is 1090 s.

Molecule `COC(=O)c1c(C)[nH]c(C(=O)N2CCC(CC(=O)NCCC(C)N3CCCCCC3)CC2)c1C` (centres undefined) had an RP-LC retention time of 604 s.

Take `Cn1nc2n(c1=O)CCN(C(=O)C1CC=CCC1)CC2` (centres undefined): the RP-LC retention time is 624 s.

As to `Brc1ccc(OCc2nn3c(C4COc5ccccc5O4)nnc3s2)cc1` (centres undefined), the RP-LC retention time was found to be 1040 s.

In the case of `CCCCOC(=O)c1ccc(NC(=O)c2cnc3scc(C)n3c2=O)cc1`, the RP-LC retention time is 1050 s.

`Fc1ccc(-c2n[nH]c(C3CCN(Cc4ccoc4)CC3)n2)cc1` yielded an RP-LC retention time of 595 s.

`CC(=O)Oc1ccc(OC(C)=O)c2c1CC(C)=C(C)C2` came in with an RP-LC retention time of 1110 s.

In the case of `NC(=O)C1CCN(C(=O)CSc2nc3ccccc3s2)CC1`, the RP-LC retention time amounted to 627 s.

The molecule `Cc1cccc(N2CCN(c3ccc4cc(S(=O)(=O)N5CCC(C)CC5)ccc4n3)CC2C)c1` (centres undefined) gave an RP-LC retention time of 1200 s.

The molecule `Cc1nnc2nc(-c3ccccc3)nc(-c3ccccc3)n12` registered an RP-LC retention time of 1130 s.

`CCN1CCCn2cc(S(=O)(=O)NCc3ccc(Cl)cc3)cc2C1=O` had an RP-LC retention time of 767 s.

With `CC(=O)Nc1ccc(C(=O)NCc2ccc(Br)cc2)c(N2CCOCC2)c1`, the RP-LC retention time worked out at 785 s.

Consider `CC(=O)N1CCC(C(=O)Nc2nnc(C3CC3)s2)CC1`, for which the RP-LC retention time is 605 s.

Take `CCOc1cc(S(=O)(=O)Nc2cccc3cn[nH]c23)ccc1Br`: the RP-LC retention time turned out to be 804 s.

`CCN1CCN(c2ccc(N3CCCC(C(=O)N4CCN(c5cccc(Cl)c5)CC4)C3)nn2)CC1` (centres undefined): the RP-LC retention time turned out to be 610 s.

In turn, `Cc1ccc2c(c1)N(Cc1ccccc1F)N=C(C(=O)N1CCCC1)S2(=O)=O` gave an RP-LC retention time of 885 s.

With `O=C(Cc1csc(-c2ccccc2)n1)Nc1nc(-c2ccccc2)cs1`, the RP-LC retention time is 1130 s.

`Cc1cc2nn(CC(=O)Nc3ccccc3)c(=O)n2c(-c2ccc(F)cc2)n1` came in with an RP-LC retention time of 800 s.

`Cc1ccc(-n2nc(N3CCN(C(=O)C4CC4)CC3)ccc2=O)cc1C` returned an RP-LC retention time of 749 s.

Regarding `O=C(CCSCc1cnn(-c2ccccc2)c1-n1cccc1)N1CCN(c2ccccn2)CC1`, the RP-LC retention time came to 707 s.

In turn, `CCOc1ccc(-c2noc(Cc3nc(-c4ccccc4Cl)cs3)n2)cc1` had an RP-LC retention time of 1340 s.

Turning to `CCn1nc(CNC(=O)c2cc(C)cc(C)c2)c2ccccc21`, the RP-LC retention time is 938 s.

`O=C(O)c1cc(-c2ccco2)n(C2CCS(=O)(=O)C2)n1` (centres undefined) registered an RP-LC retention time of 604 s.

Turning to `CCn1cc(C2=CCN(S(=O)(=O)c3ccc(C(C)(C)C)cc3)CC2)c2cccnc21`, the RP-LC retention time was 1270 s.

Take `Cc1ccc(NS(=O)(=O)c2cc(-c3cc(C(F)(F)F)on3)sc2C)c(C)c1`: the RP-LC retention time worked out at 1230 s.

`Cc1ccc(C)c(N2CCN(c3ccnc(SCC(=O)Nc4cc(F)ccc4C)n3)CC2)c1` yielded an RP-LC retention time of 1040 s.

`COc1ccccc1N1CCN(c2ncnc3c2CCC3)CC1` returned an RP-LC retention time of 645 s.

As to `CC(C)CC(=O)N1CCc2cc(CNC(=O)c3ccnn3C)ccc21`, the RP-LC retention time came to 754 s.

Molecule `CC1=C(c2ccc(C)cc2)S(=O)(=O)N=C1N1CCCN(C(=O)c2cccc(C)c2)CC1` yielded an RP-LC retention time of 898 s.

As to `COc1ccc(OC)c(NC(=O)Cn2cccc(-c3nc(-c4ccc(F)cc4)no3)c2=O)c1`, the RP-LC retention time was determined as 897 s.

Regarding `Cc1ccc(-n2nc(N3CCN(C(=O)Nc4cc(F)ccc4F)CC3)ccc2=O)cc1`, the RP-LC retention time came to 834 s.

As to `O=C(C1CC1)N1CCc2sc(S(=O)(=O)NCc3cccs3)cc2C1`, the RP-LC retention time came to 794 s.

The molecule `CCCN1C(=O)COc2ccc(-c3noc(-c4ccc(C)cc4)n3)cc21` had an RP-LC retention time of 1300 s.

The molecule `CCCNC(=O)C1CCN(Cc2cc3ccccc3n2Cc2ccccc2Cl)CC1` yielded an RP-LC retention time of 736 s.

Take `Cc1cc(C)n(-c2nc(C)c(C(=O)N(CCO)Cc3ccccc3)s2)n1`: the RP-LC retention time was 859 s.

Regarding `COc1ccc(Cl)cc1NC(=O)CSc1nc(-c2ccccc2C)ns1`, the RP-LC retention time turned out to be 1230 s.

On to `CN1CCCc2cc(C(CNC(=O)C(=O)NCCC3=CCCCC3)N3CCCC3)ccc21` (centres undefined), for which the RP-LC retention time came out at 803 s.

`Cc1cccc(CNC(=O)C2(C)Cn3cnc(C(=O)NCc4ccccc4F)c3C(=O)N2C2CC2)c1` (centres undefined) returned an RP-LC retention time of 772 s.

As for `CCOC(=O)c1cc(S(=O)(=O)N2CCCC2C(=O)Nc2ccc(NC(C)=O)cc2)cn1C` (centres undefined), the RP-LC retention time came to 718 s.

The molecule `COc1ccccc1CNC(=O)Cn1cc(C(=O)N2CCCC2)c(=O)c2ccc(C)nc21` registered an RP-LC retention time of 681 s.

For the molecule `O=C(c1nccc2ccccc12)N1CCC(c2noc(C3CC3)n2)C1` (centres undefined), the RP-LC retention time is 745 s.

Molecule `COC(=O)c1c(C)[nH]c(C(=O)N2CCCC(C(=O)NCc3ccc(N(C)C)cc3)C2)c1C` (centres undefined) had an RP-LC retention time of 597 s.

`Cc1ccc(C)c(NC(=O)C(=O)NCC(c2ccc3c(c2)CCCN3C)N2CCOCC2)c1` (centres undefined) showed an RP-LC retention time of 601 s.

`Cc1sc2ccn(C)c(=O)c2c1C(=O)N1CCN(c2cccc(Cl)c2)CC1` gave an RP-LC retention time of 844 s.

On to `CCc1nnc(-c2ccc3ccn(CC(=O)N4CCN(c5ccc(Cl)cc5)CC4)c3c2)o1`, for which the RP-LC retention time came to 965 s.

In the case of `O=C(NCc1cccs1)c1cccn1Cc1noc(-c2ccccc2)n1`, the RP-LC retention time turned out to be 972 s.

For the molecule `Cc1nc(-c2ccc(N3CCN(S(=O)(=O)c4cccnc4)CC3)nc2)no1`, the RP-LC retention time turned out to be 680 s.

`COc1cccc(N2CCN(S(=O)(=O)c3cc(-c4cc(C(F)(F)F)on4)sc3C)CC2)c1` had an RP-LC retention time of 1260 s.

The molecule `Fc1ccc(CN2CCc3nc(N4CCN(c5ccccc5F)CC4)ncc3C2)cc1F` yielded an RP-LC retention time of 806 s.

`Cc1cccc(C)c1NC(=O)C(C)n1cnc2nc3c(cc2c1=O)CCCC3` (centres undefined): the RP-LC retention time worked out at 756 s.

With `O=c1nc(-c2ccccc2)c2ccccc2[nH]1`, the RP-LC retention time turned out to be 618 s.

The molecule `COc1ccc(NC(=O)Cn2ncc3c(N4CCN(c5ccccn5)CC4)ncnc32)cc1Cl` returned an RP-LC retention time of 642 s.

`COc1cc2c(cc1CNC(=O)c1ccc(Br)cc1)OCCCO2` came in with an RP-LC retention time of 939 s.

Consider `Cc1cccc(CN2C(=O)CCc3c(C)nc(-c4ccncc4)nc32)c1`, for which the RP-LC retention time is 764 s.

The molecule `CCOC(=O)CNC(=O)C1(C)Cn2c(ccc2-c2ccco2)C(=O)N1Cc1ccccc1Cl` (centres undefined) yielded an RP-LC retention time of 876 s.

The molecule `O=C(O)c1nn(Cc2ccc(Cl)cc2Cl)c2ccccc12` showed an RP-LC retention time of 1050 s.

`Cc1nc(N2CCCC2)c2c(C(=O)Nc3ccc(Cl)cc3)c(C)oc2n1`: the RP-LC retention time amounted to 848 s.

Regarding `C=Cc1ccc(Cn2nc(-c3nc(-c4ccc(F)cc4)no3)ccc2=O)cc1`, the RP-LC retention time worked out at 1200 s.

`CCc1nc(-c2csc(S(=O)(=O)N3CCC(C(=O)Nc4cccc(Cl)c4C)CC3)c2)no1` displayed an RP-LC retention time of 984 s.

As to `O=C(NCC1CCCO1)N1CCc2[nH]nc(-c3ccccc3)c2C1` (centres undefined), the RP-LC retention time was determined as 644 s.

Molecule `CSc1ccc(CNC(=O)C2CCN(c3cncnc3N3CCOCC3)CC2)cc1` displayed an RP-LC retention time of 637 s.

`CC(C)c1noc(-c2cc(=O)n(CC(=O)NCc3ccc(Cl)cc3)c3ccccc23)n1` showed an RP-LC retention time of 1020 s.

`O=S(=O)(c1ccccc1)N1CC(c2nnc(-c3ccncc3)o2)C2(CCOCC2)C1` (centres undefined) came in with an RP-LC retention time of 660 s.

`CN(C)C[C@@H]1CN(c2ncccn2)C[C@H]1NS(=O)(=O)Cc1ccc(F)cc1` yielded an RP-LC retention time of 590 s.

For the molecule `O=C(c1cccs1)N1CCCC(OCc2nc(C3CC3)no2)C1` (centres undefined), the RP-LC retention time worked out at 786 s.

Molecule `COC(=O)c1cc2c([nH]c1=O)CC(c1ccc(OC)cc1OC)CC2=O` (centres undefined) displayed an RP-LC retention time of 699 s.

Molecule `O=c1n(Cc2ccc(F)cc2)nc2ccc(S(=O)(=O)N3CCCC3)cn12` displayed an RP-LC retention time of 855 s.

Regarding `Cc1nc2ccn(Cc3cccnc3)c(=O)c2cc1C(=O)NCCC1=CCCCC1`, the RP-LC retention time stood at 648 s.

Molecule `N#Cc1ccccc1NC(=O)Cc1ccc2c(c1)OCO2` yielded an RP-LC retention time of 710 s.

On to `O=C(Cn1cnc2ccccc2c1=O)NCCn1nc(-c2cccs2)ccc1=O`, for which the RP-LC retention time came to 622 s.

In the case of `Cc1ccc(-c2csc(NC(=O)CSc3nc4c(cc3C#N)CCC4)n2)cc1`, the RP-LC retention time was found to be 1210 s.

With `Cc1cc(C)cc(NC(=O)CN2CCC(C(=O)NC3CC3)CC2)c1`, the RP-LC retention time came out at 564 s.

Molecule `COc1nccc(N2CCC(CC(=O)NCc3ccc(OC)c(OC)c3)CC2)n1` registered an RP-LC retention time of 575 s.

In turn, `Cc1ccc(-c2cn3c(CC(=O)NCCc4ccc(Cl)cc4)csc3n2)cc1C` returned an RP-LC retention time of 734 s.
